Measured values from patent US7473527B2, “Compounds promoting delivery of genes” (The UAB Research Foundation, priority 2002, dated 2009).

Experiments:
Format in all cases: cell-based
HT29 cells [1] = test: Adenovirus luciferase gene transfer into confluent HT29 cells; details: for activation of adenovirus gene transfer (luciferase): 100 micromolar, procedure of Example 1 (MOI 50, assay 48 hours later), screen of 1032 NSC library compounds; for activation of adenovirus gene transfer (luciferase activity): MOI 1, 3 or 10, compound 30 nM, 300 nM, 10 uM, 30 uM or 100 uM, 48 hours
Procedure: HT29 cells are grown in 96-well plates. The cells are seeded at near confluency, about 300,000 cells per well, and infected with adenovirus 3-4 days later. […] For screening purposes, cells are grown on plastic. […] The activity of candidate compounds may be also confirmed using polarized monolayers grown on filters. Once confluent, HT29 cells are very difficult to transduce with adenoviral constructs. Fewer than 1 in 100 cells express adenoviral transgenes at multiplicity of infection (MOI) of approximately 50. A replication deficient adenovirus encoding firefly luciferase or the EGFP at an MOI of 50 for each well of cells in low serum medium is applied for 4 hours at 37° C. Confluent HeLa cells are used as a positive control. A set of cells is incubated with virus but no gene transfer activating compound as a negative control. Test drugs are incubated along with the virus. Forty-eight hours later, the cells are assayed for luciferase by standard techniques. Luciferase is assayed using a commercially available kit (Promega) which allows quantitative measurements of adenoviral gene transfer.
(§1) FIGS. 2A and 2B show a comparison of luciferase expression (y-axis, light units) vs. MOI (x-axis) in HeLa and HT29 cells infected with adenovirus under various conditions. For these studies, cells are grown in 96-well plates. The HT29 cells are seeded at near confluency, about 300,000 cells per well, and infected with adenovirus 3-4 days later. The cells are infected with luciferase-expressing, replication-deficient adenovirus at MOIs of 1, 3 or 10 by applying the virus to wells of cells in low serum medium for 4 hours at 37° C. In addition, the cells are incubated with gene transfer activating compound 675865 at a concentration of 30 nM, 300 nM, 10 uM, 30 uM or 100 uM along with the virus. A control set of cells is incubated with virus at MOIs of 1, 3 or 10, but no gene transfer activating compound is included. Forty-eight hours later, the cells are assayed for luciferase activity by standard techniques. […] FIGS. 3A and 3B present data from these experiments in which luciferase expression (y-axis, light units) is plotted vs. compound 675865 concentration (x-axis).
as §1, with “6A” for “2A”, “6B” for “2B”, “143491” for “675865”, “7A” for “3A”, “7B” for “3B”
(§2) Luciferase activity is measured using a commercially available assay kit (Bright-Glo™, Promega) designed for high throughput screening. Briefly, the Bright-Glo™ substrate is dissolved in Bright-Glo™ assay buffer at room temperature. 50 μl of the premixed Bright-Glo™ reagent is directly added to each well of the assay plate. Luminescence is measured in a microluminometer (Harta Instrument, Gaithersburg, Md.).

HeLa and HT29 cells = test: Adeno-associated virus luciferase gene transfer into HeLa and HT29 cells; details: MOI 2.78, 8.33 or 22, compound 30 nM to 100 uM, 48 hours
Procedure: FIGS. 8A and 8B show a comparison of luciferase expression (y-axis, light units) vs. MOI (x-axis) in HeLa and HT29 cells infected with adeno-associated virus under various conditions. For these studies, cells are grown as described in Example 8. The HT29 cells are seeded at near confluency, about 300,000 cells per well, and infected with adenovirus 3-4 days later. The cells are infected with luciferase-expressing, adeno-associated virus at MOIs of 2.78, 8.33 or 22 by applying the virus to wells of cells in low serum medium for 4 hours at 37° C. In addition, the cells are incubated with gene transfer activating compound 143491 at a concentration of 30 nM, 300 nM, 10 uM, 30 uM or 100 uM along with the virus. A control set of cells is incubated with virus at MOIs of 2.78, 8.33 or 22, but no gene transfer activating compound is included. Forty-eight hours later, the cells are assayed for luciferase activity by standard techniques. Luciferase activity is enhanced in cells treated with compound 143491 compared with controls. […]
Luciferase activity is measured using a commercially available assay kit (Bright-Glo™, Promega) designed for high throughput screening. […] Luminescence is measured in a microluminometer (Harta Instrument, Gaithersburg, Md.).

HT29 cells [2] = test: Adenovirus EGFP gene transfer, fluorescence microscopy; details: 100 micromolar compound, adenovirus EGFP MOI 0.1-10, 4 hours
Procedure: HT29 or HeLa cells are grown in 96-well plates. The HT29 cells are seeded at near confluency, about 300,000 cells per well, and infected with adenovirus 3-4 days later. Confluent HeLa cells are used as a positive control. […] A replication deficient adenovirus encoding the EGFP gene is applied at an MOI of 0.1-10 to wells of cells in low serum medium for 4 hours at 37° C. Gene transfer activating compounds are incubated along with the virus at concentrations of 100 micromolar. Cells are visualized with a fluorescent microscope where green fluorescence indicates EGFP expression. A set of cells is incubated with virus but no gene transfer activating compound.

Calu3 cells = test: Adenovirus luciferase gene transfer into Calu3 cells grown on filters or plastic; details: 40 μm compound; 10 MOI (FIG. 4A)
Procedure: Lung epithelial cells which form tight junctions in vitro, Calu3, are grown on filters (Corning Costar Transwell®—polyester—pore size 0.4 μm) or plastic well allowing apical and basolateral specialization to occur.
Calu3 cells grown as described in Example 9 are incubated with adenovirus at 10 MOI and various compounds at a concentration of 40 micromolar. FIG. 4B indicates luciferase activity measured under these conditions.
Calu3 cells grown as described in Example 9 are incubated with luciferase-expressing adenovirus and various gene transfer activating compounds.
as §2

HT29 cells [3] = test: Lentivirus luciferase gene transfer into HT29 cells; details: MOI 0.002, 0.02 or 0.2, compound 30 nM to 100 uM, 48 hours
Procedure: FIG. 5A show a comparison of luciferase expression (y-axis, light units) vs. MOI (x-axis) in HT29 cells infected with lentivirus under various conditions. For these studies, cells are grown in 96-well plates as described in Example 8. The HT29 cells are seeded at near confluency, about 300,000 cells per well, and infected with a lentivirus vector expressing luciferase 3-4 days later. The cells are infected with lentivirus at MOIs of 0.002, 0.02 or 0.2 by applying the virus to wells of cells in low serum medium for 4 hours at 37° C. In addition, the cells are incubated with gene transfer activating compound 675865 at a concentration of 30 nM, 300 nM, 10 uM, 30 uM or 100 uM along with the virus. A control set of cells is incubated with virus at MOIs of 0.002, 0.02 or 0.2 but no gene transfer activating compound is included. Forty-eight hours later, the cells are assayed for luciferase activity by standard techniques.
FIG. 5B present data from these experiments in which luciferase expression (y-axis, light units) is plotted vs. compound 675865 concentration (x-axis).
Luciferase activity is measured using a commercially available assay kit (Bright-Glo™, Promega) designed for high throughput screening. Briefly, the Bright-Glo™ substrate is dissolved in Bright-Glo™ assay buffer at room temperature. […] Luminescence is measured in a microluminometer (Harta Instrument, Gaithersburg, Md.).

SMILES | activation of adenovirus gene transfer (luciferase) (HT29 cells [1]) | other results
O=C(O)c1ccccc1N=Cc1ccc(N(CCCl)CCCl)cc1 [NSC 101492] | activation of adenovirus gene transfer | 
O=C(CC(=O)c1cc(Cl)ccc1O)c1cccnc1 [NSC 73609] | activation of adenovirus gene transfer | 
COc1cccc2c1C(=O)c1c(O)c3c(c(O)c1C2=O)CC(O)(/C(C)=N/O)CC3OC1CC(N)C(O)C(C)O1 (stereo not shown) [NSC 143491] | activation of adenovirus gene transfer | activation of adenovirus gene transfer (luciferase activity) (HT29 cells [1]): activation of adenovirus gene transfer; luciferase activity compared with controls, adeno-associated virus vector (HeLa and HT29 cells): enhanced
CN(C)C(=O)CCCc1ccc(N(CCCl)CCCl)cc1 [NSC 108613] | activation of adenovirus gene transfer | 
CC1=C(C)C(C#N)(C(=O)CBr)C(=N)O1 (stereo not shown) [NSC 128720] | activation of adenovirus gene transfer | 
CN(C)CCCNc1c2ccccc2nc2ccc(F)cc12.Cl [NSC 109325] | activation of adenovirus gene transfer | 
COc1ccc(CC2C(=O)NC(C)C(=O)N(C)C3C(=O)N(C)C(Cc4ccc(O)c(c4)Oc4ccc(cc4)C3O)C(=O)NC(C)C(=O)NC(C)C(=O)N2C)cc1 (stereo not shown) [NSC 259968] | activation of adenovirus gene transfer | 
Nc1ncnc2c(C3OC(CO)C(O)C3O)nsc12 (stereo not shown) [NSC 675865] | activation of adenovirus gene transfer | activation of adenovirus gene transfer (luciferase activity) (HT29 cells [1]): activation of adenovirus gene transfer; activation of adenovirus gene transfer (EGFP green fluorescence) (HT29 cells [2]): activation of adenovirus gene transfer; luciferase activity in Calu3 cells infected with luciferase expressing adenovirus (Calu3 cells): increased luciferase activity; luciferase activity, lentivirus vector (HT29 cells [3]): enhancement of luciferase activity
CN(C)CCCN=c1c2ccccc2n(C)c2[nH]c(=O)n(C)c(=O)c12 [NSC 373989] | activation of adenovirus gene transfer | 
CCCCCCCCCCCCCC[As](=O)(O)O [NSC 106191] | activation of adenovirus gene transfer | 
